# Reference: patent publication US20110196035A1, “Temporally-Controlled Treatment of Joint Disease” (priority 2010, published 2011)
# Where two headings read alike, the source gives them in different places.
# Tested on: HIG-82 synovial cells
# Procedure: After having made these measurements at various times following insertion of the test composition into the simulated joint, the effect on MMP production by synovial cells for relevant blocker concentrations and times of exposure was measured employing a confluent layer of HIG-82 synovial cells in serumless Neuman-Tytell growth medium, which is a model system commonly used by those skilled in the art to represent human synovial tissue for the purpose of studying the proinflammatory effects of IL-1 and the antagonization thereon produced by agents of interest, for example, calcium-channel blockers.
# The MMP levels in the medium conditioned by the cells were measured using the assay described in Kolomytkin, O. V., Marino, A. A., Waddell, D. D., Mathis, J. M., Wolf, R. E., Sadasivan, K. K. and Albright, J. A. IL-1β-induced Production of Metalloproteinases by Synovial Cells Depends on Gap-junction Conductance.
smiles,measurement,setting,value
"COc1ccc(CCN(C)CCCC(C#N)(c2ccc(OC)c(OC)c2)C(C)C)cc1OC (racemic) [racemic verapamil, verapamil]",reduction of MMP activity,0.009 mg/mL for 300 hours,about 21%
same,reduction of MMP production/activity,0.05 mg/mL for 32 hours,59%
same,reduction of MMP production/activity,0.05 mg/mL for 34 hours,61%
same,reduction in MMP activity,0.05 mg/mL for 62 hours,87%
same,inhibition at 50 µg/mL,"Synovial cell, 45 h, read-out: maximum MMP inhibition",~81%
same,inhibition at 31 µg/mL,"Synovial cell, 300 h, read-out: MMP inhibition",~61%
same,inhibition at 19 µg/mL,"Synovial cell, 300 h, read-out: maximum MMP inhibition",37%
same,inhibition at 50 µg/mL,"Synovial cell, read-out: MMP inhibition",81%
same,reduction of MMP production,"conditions of 2 mg in saline composition: average 0.006 mg/mL, about 35 hours",13%
same,verapamil concentration at which MMP inhibition reaches its maximum value,"exposure about 45 hours, further increases give no enhanced inhibition",about 0.05 mg/mL
same,maximum MMP inhibition,exposure time 10 hours (FIG. 3A),22%
same,maximum MMP inhibition,exposure time 100 hours (FIG. 3A),91%
